# How the values were obtained:
# hERG (KCNH2) = hERG (KCNH2) (Homo sapiens, UniProt Q12809); experiment: K+/HERG Eurofins SafetyScreen44 (BI); conditions: compound concentration 10 uM, read-out: % Ctrl
# [1] = target: Muscarinic acetylcholine receptor M3 (Homo sapiens, UniProt P20309); experiment: M3/HU Eurofins SafetyScreen44 (BI)
# [2] = target: T1, Alpha-1B adrenergic receptor (Homo sapiens) (UniProt P35368); experiment: ALPHA1B/R Eurofins SafetyScreen44 (BI); conditions: Rattus norvegicus; Compound concentration 10.0 uM
# T1 sequence (whole entry): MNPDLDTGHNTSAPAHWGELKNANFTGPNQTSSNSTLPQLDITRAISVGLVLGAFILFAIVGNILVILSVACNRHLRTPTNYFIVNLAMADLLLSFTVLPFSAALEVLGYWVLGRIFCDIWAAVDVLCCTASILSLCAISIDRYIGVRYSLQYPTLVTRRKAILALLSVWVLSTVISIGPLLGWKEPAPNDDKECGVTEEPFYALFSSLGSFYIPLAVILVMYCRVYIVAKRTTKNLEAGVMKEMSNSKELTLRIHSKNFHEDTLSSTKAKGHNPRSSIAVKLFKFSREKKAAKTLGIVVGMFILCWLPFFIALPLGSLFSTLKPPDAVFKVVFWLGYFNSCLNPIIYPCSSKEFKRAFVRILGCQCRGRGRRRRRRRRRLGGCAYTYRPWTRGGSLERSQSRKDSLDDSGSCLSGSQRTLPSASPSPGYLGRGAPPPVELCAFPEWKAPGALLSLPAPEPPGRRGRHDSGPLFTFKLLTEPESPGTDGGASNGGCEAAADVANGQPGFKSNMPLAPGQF
# [3] = target: T2, Alpha-2B adrenergic receptor (Homo sapiens) (UniProt P18089); experiment: ALPHA2B/H Eurofins SafetyScreen44 (BI)
# T2 sequence (whole entry): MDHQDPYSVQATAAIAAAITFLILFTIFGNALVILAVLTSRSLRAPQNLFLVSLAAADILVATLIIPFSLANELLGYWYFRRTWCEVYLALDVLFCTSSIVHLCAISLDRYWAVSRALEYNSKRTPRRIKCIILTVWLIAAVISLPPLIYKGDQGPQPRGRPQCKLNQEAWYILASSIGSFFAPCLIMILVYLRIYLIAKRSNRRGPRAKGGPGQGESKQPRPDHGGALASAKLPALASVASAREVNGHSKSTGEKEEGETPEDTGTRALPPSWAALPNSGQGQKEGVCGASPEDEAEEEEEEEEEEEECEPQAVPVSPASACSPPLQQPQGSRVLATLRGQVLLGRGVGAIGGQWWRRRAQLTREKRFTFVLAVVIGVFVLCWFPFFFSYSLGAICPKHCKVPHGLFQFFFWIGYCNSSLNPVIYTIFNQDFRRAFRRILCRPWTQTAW
# [4] = target: Gamma-aminobutyric acid receptor subunit alpha-1 (Rattus norvegicus) (UniProt P62813); experiment: GABAACENTR Eurofins SafetyScreen44 (BI); conditions: Compound concentration 10.0 uM
# Chain of Gamma-aminobutyric acid receptor subunit alpha-1 (Rattus norvegicus) (P62813 whole entry): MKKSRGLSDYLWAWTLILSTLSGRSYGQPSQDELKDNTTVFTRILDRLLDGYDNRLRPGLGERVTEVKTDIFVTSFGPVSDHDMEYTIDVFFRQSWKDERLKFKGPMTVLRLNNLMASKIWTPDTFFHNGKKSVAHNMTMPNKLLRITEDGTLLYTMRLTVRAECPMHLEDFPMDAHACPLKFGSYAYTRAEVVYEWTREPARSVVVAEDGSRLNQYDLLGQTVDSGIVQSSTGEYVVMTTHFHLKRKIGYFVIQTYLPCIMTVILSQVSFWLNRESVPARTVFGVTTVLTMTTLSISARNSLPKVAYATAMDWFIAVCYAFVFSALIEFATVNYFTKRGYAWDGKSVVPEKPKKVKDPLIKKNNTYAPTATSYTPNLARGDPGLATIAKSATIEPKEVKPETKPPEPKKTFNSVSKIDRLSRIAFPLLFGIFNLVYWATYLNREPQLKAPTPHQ
# [5] = target: Glutamate receptor ionotropic, kainate 1 (Rattus norvegicus) (UniProt P22756); experiment: KAINATE/R Eurofins SafetyScreen44 (BI); conditions: Compound concentration 10.0 uM
# Chain of Glutamate receptor ionotropic, kainate 1 (Rattus norvegicus) (P22756 whole entry): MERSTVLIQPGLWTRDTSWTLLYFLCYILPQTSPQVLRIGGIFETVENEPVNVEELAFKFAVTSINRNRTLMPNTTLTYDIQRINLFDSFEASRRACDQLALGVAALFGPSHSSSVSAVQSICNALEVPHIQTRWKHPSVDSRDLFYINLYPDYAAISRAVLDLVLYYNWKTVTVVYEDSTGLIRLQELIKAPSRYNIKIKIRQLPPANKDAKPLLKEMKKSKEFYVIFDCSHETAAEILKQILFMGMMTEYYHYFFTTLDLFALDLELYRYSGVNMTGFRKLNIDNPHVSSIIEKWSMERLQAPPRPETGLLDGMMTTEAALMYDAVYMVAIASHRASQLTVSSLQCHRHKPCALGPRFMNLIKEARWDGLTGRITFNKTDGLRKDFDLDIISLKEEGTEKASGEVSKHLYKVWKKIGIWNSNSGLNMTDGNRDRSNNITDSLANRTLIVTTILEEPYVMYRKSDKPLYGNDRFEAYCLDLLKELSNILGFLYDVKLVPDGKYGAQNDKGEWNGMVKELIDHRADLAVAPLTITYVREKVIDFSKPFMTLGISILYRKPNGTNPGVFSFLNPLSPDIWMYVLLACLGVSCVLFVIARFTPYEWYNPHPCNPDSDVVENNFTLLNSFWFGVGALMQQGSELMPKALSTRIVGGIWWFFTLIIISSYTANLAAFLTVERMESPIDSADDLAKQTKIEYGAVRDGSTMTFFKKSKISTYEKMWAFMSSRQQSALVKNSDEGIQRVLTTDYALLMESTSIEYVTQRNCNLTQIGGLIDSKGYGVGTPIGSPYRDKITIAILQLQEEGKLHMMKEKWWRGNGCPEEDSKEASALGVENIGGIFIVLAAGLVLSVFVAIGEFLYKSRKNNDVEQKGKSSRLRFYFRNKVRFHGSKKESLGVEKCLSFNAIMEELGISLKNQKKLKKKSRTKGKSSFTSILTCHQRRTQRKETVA
# [6] = target: D(4) dopamine receptor (Homo sapiens) (UniProt P21917); experiment: D4.2/H Eurofins SafetyScreen44 (BI); conditions: Compound concentration 10.0 uM
# Chain of D(4) dopamine receptor (Homo sapiens) (P21917 whole entry): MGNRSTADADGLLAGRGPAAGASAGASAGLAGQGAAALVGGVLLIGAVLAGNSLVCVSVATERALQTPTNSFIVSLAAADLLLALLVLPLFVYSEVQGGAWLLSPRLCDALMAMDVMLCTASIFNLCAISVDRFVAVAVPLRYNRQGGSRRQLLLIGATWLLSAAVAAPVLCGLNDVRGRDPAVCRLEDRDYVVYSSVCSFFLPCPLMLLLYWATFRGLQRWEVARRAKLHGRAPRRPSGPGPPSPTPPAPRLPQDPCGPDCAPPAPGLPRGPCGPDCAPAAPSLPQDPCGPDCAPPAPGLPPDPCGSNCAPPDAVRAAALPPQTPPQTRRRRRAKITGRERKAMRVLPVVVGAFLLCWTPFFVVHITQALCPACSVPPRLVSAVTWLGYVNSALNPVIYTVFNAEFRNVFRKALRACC
# [7] = target: T3, Alpha-2C adrenergic receptor (Homo sapiens) (UniProt P18825); experiment: ALPHA2C/H Eurofins SafetyScreen44 (BI)
# T3 sequence (whole entry): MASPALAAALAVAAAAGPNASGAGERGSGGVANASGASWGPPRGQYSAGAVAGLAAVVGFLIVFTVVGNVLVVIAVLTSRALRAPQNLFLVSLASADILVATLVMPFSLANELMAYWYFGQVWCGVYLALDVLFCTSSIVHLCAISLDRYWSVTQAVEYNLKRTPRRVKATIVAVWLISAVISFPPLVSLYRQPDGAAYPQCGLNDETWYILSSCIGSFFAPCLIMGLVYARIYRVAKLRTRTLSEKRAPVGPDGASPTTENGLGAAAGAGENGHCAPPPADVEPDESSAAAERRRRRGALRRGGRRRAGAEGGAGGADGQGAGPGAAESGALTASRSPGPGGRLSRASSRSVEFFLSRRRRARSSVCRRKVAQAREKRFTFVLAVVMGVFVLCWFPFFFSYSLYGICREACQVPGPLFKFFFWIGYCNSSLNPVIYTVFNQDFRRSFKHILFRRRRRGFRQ
# [8] = target: Delta-type opioid receptor (Homo sapiens) (UniProt P41143); experiment: DELTA2/H Eurofins SafetyScreen44 (BI); conditions: Compound concentration 10.0 uM
# Chain of Delta-type opioid receptor (Homo sapiens) (P41143 whole entry): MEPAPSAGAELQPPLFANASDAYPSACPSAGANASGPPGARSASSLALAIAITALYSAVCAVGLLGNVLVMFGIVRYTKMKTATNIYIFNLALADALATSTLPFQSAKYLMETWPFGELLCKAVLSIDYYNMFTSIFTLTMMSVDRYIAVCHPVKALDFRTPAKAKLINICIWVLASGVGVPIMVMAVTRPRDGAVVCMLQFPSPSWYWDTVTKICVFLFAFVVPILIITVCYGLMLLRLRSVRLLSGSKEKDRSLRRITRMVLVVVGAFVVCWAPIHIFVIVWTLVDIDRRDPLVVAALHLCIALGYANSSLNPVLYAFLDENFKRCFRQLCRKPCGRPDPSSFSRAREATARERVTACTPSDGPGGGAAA
# [9] = target: 5-hydroxytryptamine receptor 1B (Homo sapiens) (UniProt P28222); experiment: 5HT1B(H) Eurofins SafetyScreen44 (BI); conditions: filed as antagonist, Compound concentration 10.0 uM
# [10] = target: T4, Alpha-2A adrenergic receptor (Homo sapiens) (UniProt P08913); experiment: ALPHA2A/HU Eurofins SafetyScreen44 (BI); conditions: Compound concentration 10.0 uM
# T4 sequence (whole entry): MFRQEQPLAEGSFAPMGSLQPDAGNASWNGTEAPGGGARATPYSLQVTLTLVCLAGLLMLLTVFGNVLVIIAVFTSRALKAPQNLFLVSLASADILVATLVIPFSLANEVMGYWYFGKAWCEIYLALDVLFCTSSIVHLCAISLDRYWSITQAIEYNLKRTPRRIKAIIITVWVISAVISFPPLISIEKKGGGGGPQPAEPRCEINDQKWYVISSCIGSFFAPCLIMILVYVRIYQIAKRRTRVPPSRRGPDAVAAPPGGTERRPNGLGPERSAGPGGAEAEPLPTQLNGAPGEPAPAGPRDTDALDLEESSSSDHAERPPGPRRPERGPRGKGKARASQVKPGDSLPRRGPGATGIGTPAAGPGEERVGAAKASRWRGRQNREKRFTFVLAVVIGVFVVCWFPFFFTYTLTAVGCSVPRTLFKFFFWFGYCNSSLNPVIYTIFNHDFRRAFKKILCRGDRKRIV
# [11] = target: Sodium-dependent noradrenaline transporter (Homo sapiens) (UniProt P23975); experiment: NEUP/H Eurofins SafetyScreen44 (BI); conditions: Compound concentration 10.0 uM
# Chain of Sodium-dependent noradrenaline transporter (Homo sapiens) (P23975 whole entry): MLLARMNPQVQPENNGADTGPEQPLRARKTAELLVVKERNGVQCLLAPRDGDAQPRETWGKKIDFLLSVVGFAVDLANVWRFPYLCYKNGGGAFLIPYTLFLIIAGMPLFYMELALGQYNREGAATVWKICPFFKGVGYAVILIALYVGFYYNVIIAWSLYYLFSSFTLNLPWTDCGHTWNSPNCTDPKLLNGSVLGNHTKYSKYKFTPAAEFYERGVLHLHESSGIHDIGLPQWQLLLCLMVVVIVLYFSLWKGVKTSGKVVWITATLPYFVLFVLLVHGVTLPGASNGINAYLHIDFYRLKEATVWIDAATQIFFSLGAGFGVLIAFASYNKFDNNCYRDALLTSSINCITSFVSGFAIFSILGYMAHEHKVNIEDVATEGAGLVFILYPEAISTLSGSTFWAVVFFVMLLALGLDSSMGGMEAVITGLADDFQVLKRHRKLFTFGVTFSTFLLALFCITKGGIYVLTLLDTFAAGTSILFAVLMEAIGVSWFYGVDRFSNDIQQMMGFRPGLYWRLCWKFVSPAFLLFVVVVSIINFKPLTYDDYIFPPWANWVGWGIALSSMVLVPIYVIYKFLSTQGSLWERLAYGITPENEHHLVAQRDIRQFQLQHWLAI
# [12] = target: Kappa-type opioid receptor (Homo sapiens) (UniProt P41145); experiment: KAPPA(KOP)_HU Eurofins SafetyScreen44 (BI); conditions: Compound concentration 10.0 uM
# Chain of Kappa-type opioid receptor (Homo sapiens) (P41145 whole entry): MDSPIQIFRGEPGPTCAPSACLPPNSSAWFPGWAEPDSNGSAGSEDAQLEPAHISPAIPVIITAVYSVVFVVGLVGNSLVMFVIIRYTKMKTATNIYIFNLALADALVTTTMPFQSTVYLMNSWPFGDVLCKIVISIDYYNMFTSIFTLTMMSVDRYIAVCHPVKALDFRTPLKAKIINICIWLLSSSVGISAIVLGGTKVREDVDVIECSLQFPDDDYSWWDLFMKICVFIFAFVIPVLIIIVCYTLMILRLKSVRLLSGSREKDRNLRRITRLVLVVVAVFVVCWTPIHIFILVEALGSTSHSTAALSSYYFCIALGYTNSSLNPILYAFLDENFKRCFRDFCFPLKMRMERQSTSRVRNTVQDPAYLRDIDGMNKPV
# Chain of Muscarinic acetylcholine receptor M3 (P20309 whole entry, looked up): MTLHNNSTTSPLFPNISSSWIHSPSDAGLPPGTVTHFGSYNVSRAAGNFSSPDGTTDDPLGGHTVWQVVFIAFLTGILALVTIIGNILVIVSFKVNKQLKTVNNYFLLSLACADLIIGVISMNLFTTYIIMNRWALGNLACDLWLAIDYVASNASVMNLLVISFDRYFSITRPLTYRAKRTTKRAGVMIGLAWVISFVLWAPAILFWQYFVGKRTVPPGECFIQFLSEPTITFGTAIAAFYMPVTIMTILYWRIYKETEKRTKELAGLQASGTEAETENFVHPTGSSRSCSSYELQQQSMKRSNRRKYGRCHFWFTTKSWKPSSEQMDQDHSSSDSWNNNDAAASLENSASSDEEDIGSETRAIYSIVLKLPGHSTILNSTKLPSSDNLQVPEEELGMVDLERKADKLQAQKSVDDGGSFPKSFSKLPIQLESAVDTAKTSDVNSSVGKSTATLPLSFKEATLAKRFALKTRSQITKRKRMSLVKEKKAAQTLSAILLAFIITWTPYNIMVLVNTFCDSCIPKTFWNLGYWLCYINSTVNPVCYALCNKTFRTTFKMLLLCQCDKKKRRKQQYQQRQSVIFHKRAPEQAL
# Chain of hERG (KCNH2) (Q12809 whole entry): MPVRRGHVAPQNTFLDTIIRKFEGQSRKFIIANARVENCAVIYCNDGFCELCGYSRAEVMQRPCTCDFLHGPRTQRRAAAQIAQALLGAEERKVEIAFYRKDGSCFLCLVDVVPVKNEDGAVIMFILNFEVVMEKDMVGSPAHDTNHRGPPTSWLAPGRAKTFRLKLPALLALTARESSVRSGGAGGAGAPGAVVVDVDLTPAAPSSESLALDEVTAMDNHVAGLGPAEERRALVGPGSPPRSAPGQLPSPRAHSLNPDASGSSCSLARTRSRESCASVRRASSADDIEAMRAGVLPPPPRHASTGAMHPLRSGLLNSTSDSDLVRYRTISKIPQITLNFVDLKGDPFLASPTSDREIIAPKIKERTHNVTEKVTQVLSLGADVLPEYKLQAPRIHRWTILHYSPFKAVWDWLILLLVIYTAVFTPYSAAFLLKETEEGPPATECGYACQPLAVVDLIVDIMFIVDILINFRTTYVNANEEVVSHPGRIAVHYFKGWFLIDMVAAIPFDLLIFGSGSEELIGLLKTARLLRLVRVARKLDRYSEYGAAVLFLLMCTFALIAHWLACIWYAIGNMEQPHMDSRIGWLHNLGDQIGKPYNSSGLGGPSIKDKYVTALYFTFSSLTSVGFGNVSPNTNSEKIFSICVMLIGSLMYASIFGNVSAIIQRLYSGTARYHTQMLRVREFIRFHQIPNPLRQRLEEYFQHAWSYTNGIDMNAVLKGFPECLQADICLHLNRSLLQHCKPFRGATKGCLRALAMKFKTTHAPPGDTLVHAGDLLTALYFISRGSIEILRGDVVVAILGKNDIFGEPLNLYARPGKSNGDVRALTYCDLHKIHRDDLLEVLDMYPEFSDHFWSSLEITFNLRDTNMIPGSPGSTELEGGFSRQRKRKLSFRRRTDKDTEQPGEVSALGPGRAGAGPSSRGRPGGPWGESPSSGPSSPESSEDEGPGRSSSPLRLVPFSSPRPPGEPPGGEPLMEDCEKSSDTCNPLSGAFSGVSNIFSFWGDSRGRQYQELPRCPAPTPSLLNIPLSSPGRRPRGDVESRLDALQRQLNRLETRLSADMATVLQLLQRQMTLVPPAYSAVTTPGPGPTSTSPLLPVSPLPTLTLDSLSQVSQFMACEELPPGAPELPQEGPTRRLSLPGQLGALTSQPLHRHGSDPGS
smiles,measurement,setting,value
Cc1cc(OCCC(C)(C)O)cc(C)c1-c1ccc(F)c2c1CC[C@H]2Oc1ccc2c(c1)OC[C@H]2CC(=O)O,activity at 10 µM,hERG (KCNH2),80% (not active)
same,residual activity,[1]; Compound concentration 0.3 uM,83%
same,residual activity,[1]; Compound concentration 1.0 uM,75%
same,residual activity,[1]; Compound concentration 3.0 uM,60%
same,residual activity,[1]; Compound concentration 10.0 uM,54%
same,residual activity,[1]; Compound concentration 30.0 uM,28%
same,residual activity,[2],114%
same,residual activity,[3]; Compound concentration 0.3 uM,97%
same,residual activity,[3]; Compound concentration 1.0 uM,98%
same,residual activity,[3]; Compound concentration 3.0 uM,103%
same,residual activity,[3]; Compound concentration 10.0 uM,90%
same,residual activity,[3]; Compound concentration 30.0 uM,75%
same,residual activity,[4],83%
same,residual activity,[5],117%
same,residual activity,[6],99%
same,residual activity,[7]; Compound concentration 0.1 uM,93%
same,residual activity,[7]; Compound concentration 0.3 uM,100%
same,residual activity,[7]; Compound concentration 1.0 uM,95%
same,residual activity,[7]; Compound concentration 3.0 uM,82%
same,residual activity,[7]; Compound concentration 10.0 uM,23%
same,residual activity,[7]; Compound concentration 30.0 uM,1%
COCCCS(=O)(=O)c1cc(C)c(-c2ccc(F)c3c2CC[C@H]3Oc2ccc3c(c2)OC[C@H]3CC(=O)O)c(C)c1,residual activity,[8],89%
same,residual activity,[9],97%
same,residual activity,[10],94%
same,residual activity,[11],83%
same,residual activity,[12],96%

# From ChEMBL document CHEMBL5058643, “Data for DCP probe BI-2081” (2022)
